Measurements published in patent US20200392158A1, “INHIBITORS OF LEUCINE RICH REPEAT KINASE 2” (GLAXOSMITHKLINE INTELLECTUAL PROPERTY DEVELOPMENT LIMITED, priority 2017, published 2020).

Legend:
[1] = biological target: T1, LRRK2 kinase in SH-SY5Y cells over-expressing recombinant full length LRRK2 (Homo sapiens, UniProt Q5S007); experiment: Recombinant cellular LRRK2 AlphaScreen assay (LRRK2 Ser935 phosphorylation); type: cell-based; details: 60 min
T1 construct: A BacMam virus expressing full length recombinant LRRK2 was purchased from Invitrogen; host or cells: SH-SY5Y human neuroblastoma cells transduced with BacMam LRRK2 virus
T1 sequence (Q5S007 whole entry): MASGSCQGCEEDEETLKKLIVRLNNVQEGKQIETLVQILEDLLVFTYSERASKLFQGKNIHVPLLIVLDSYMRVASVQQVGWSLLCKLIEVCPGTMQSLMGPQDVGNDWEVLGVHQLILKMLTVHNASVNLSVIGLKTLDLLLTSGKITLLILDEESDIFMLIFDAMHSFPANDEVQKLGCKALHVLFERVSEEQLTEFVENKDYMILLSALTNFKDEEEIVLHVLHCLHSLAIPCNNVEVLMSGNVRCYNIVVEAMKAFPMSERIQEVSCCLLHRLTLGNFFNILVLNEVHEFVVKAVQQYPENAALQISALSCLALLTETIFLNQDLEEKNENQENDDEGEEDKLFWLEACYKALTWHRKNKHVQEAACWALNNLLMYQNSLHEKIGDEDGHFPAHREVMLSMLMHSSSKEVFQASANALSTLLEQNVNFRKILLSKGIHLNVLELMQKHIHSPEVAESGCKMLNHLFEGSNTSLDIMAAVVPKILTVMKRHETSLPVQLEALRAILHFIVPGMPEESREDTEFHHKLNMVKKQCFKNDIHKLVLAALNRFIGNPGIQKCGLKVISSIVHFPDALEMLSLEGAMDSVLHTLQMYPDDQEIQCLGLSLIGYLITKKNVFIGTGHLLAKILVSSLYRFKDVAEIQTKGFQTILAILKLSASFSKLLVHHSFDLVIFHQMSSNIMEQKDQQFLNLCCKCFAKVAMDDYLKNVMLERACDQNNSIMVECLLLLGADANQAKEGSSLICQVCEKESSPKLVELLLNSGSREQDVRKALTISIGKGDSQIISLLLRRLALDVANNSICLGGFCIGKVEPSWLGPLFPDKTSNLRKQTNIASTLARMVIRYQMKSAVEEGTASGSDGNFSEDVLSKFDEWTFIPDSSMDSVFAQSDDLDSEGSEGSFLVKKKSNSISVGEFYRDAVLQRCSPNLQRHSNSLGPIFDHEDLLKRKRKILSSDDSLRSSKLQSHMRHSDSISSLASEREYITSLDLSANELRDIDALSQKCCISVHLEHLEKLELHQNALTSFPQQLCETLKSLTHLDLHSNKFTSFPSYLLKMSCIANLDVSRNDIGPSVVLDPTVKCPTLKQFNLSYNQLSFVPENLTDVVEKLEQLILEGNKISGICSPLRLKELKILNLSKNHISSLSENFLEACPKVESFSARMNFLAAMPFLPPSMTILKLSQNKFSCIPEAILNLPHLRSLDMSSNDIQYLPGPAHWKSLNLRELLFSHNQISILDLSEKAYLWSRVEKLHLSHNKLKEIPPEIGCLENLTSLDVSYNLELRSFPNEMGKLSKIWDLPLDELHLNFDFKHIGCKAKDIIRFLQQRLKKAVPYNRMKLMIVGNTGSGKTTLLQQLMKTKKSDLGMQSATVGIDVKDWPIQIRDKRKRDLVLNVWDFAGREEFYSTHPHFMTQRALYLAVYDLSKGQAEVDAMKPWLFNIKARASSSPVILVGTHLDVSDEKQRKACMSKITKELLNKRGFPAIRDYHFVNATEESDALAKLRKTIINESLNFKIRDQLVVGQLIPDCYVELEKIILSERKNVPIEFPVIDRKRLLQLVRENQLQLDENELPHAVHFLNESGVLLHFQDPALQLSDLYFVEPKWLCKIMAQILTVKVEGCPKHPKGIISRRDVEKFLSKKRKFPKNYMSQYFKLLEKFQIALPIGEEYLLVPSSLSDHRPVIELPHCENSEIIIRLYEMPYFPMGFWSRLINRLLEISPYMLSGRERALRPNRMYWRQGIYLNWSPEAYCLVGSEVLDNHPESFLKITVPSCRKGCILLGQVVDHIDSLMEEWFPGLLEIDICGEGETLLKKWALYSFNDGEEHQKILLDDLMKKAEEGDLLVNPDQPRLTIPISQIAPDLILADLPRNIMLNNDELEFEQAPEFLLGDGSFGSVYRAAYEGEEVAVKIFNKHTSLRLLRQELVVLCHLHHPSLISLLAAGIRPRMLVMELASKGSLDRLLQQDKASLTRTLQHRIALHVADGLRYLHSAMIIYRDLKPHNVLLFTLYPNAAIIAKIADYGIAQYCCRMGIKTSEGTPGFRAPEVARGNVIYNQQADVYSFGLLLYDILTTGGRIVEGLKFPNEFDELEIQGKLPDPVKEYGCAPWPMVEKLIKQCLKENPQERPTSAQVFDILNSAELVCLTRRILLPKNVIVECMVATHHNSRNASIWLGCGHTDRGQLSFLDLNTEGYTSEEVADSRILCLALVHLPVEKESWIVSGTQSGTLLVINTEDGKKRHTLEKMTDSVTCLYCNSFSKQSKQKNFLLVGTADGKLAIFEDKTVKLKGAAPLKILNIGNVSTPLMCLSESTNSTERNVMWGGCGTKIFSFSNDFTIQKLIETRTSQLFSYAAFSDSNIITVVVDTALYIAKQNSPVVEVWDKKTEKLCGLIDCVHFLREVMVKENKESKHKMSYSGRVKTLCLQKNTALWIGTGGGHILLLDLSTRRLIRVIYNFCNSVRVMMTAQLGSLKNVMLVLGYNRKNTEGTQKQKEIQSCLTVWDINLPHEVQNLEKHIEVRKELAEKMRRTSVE
Description: b. Recombinant Cellular LRRK2 AlphaScreen Assay
To determine the activity of compounds against LRRK2 kinase in cells, the observed LRRK2 kinase-dependent modulation of LRRK2 Ser 935 phosphorylation (Dzamko et al., 2010, Biochem. J. 430: 405-413) was utilized to develop a quantitative 384 well plate-based immunoassay of LRRK2 Ser935 phosphorylation in the human neuroblastoma cell line SH-SY5Y, engineered to over-express recombinant full length LRRK2 protein.
A BacMam virus expressing full length recombinant LRRK2 was purchased from Invitrogen and amplified by inoculation of SF-9 cells at MOI 0.3 for 4-5 days in Sf-900 III SFM medium supplemented with 3% fetal bovine serum. Infected cell cultures were then centrifuged at 2000 g for 20 minutes, viral supernatant titer determined by anti-gp64 plaque assay and stored at 4° C.
Affinity-purified anti-phospho LRRK2 Ser935 sheep polyclonal antibody (Dzamko et al., 2010, Biochem. J. 430: 405-413) was biotinylated by standard methods (PerkinElmer). Anti-LRRK2 rabbit polyclonal antibody was purchased from Novus Biologicals. AlphaScreen Protein A IgG Kit (including acceptor and donor beads) was purchased from Perkin Elmer.
SH-SY5Y cells were grown in DMEM/F12 medium with 10% dialysed fetal bovine serum and harvested by treatment with 0.5% trypsin-EDTA for 5 minutes at 37° C. followed by centrifugation at 1000 rpm for 4 minutes. The cell pellet was resuspended in Opti-MEM reduced serum media (Invitrogen) at 200,000 cells/ml and mixed with the BacMam LRRK2 virus at M01=50. 50 μl cell solutions were then dispensed to each well of a 384-well plate and incubated at 37° C., 5% CO2 for 24 hours.
Compounds were prepared at 10× final assay concentration as 11 point 1 in 4 serial I dilutions in Opti-MEM reduced serum medium (Invitrogen 31985070) containing 1% DMSO. On the day of assay, 5.5 μl of the compound solutions were transferred from the compound plate to the cell assay plate to achieve a top final assay concentration of 10 uM. DMSO (0.1% final assay concentration) was added to column 6 and 2-(benzyloxy)-5-methyl-4-(1-methyl-1H-pyrazol-4-yl)-N-(pyridin-3-yl)benzamide (2 μM final assay concentration) was added to column 18 to serve as 0% and 100% inhibition controls, respectively.
Cells were incubated at 37° C., 5% CO2 for 60 minutes. The medium was then removed and cells lysed by addition of 20 μl of cell lysis buffer (Cell Signaling Technology) and incubation at 4° C. for 20 minutes. 10 μl of antibody/acceptor bead mix [(1/1000 biotinylated-pS935 LRRK2 antibody, 1/1000 total-LRRK2 antibody, 1/100 Acceptor beads in AlphaScreen detection buffer (25 mM Hepes (pH 7.4), 0.5% Triton X-100, 1 mg/ml Dextran 500 and 0.1% BSA)] was then added to each well and plates incubated for 2 hours at ambient temperature in the dark. 10 μl of donor beads solution (1/33.3 donor beads in AlphaScreen detection buffer) was then added to each well. Following incubation for a further 2 hours at ambient temperature in the dark, plates were read on an EnVision™ plate reader at emission 520-620 nm with excitation 680 nm. Dose response curve data was based on a sigmoidal dose-response model.

[2] = biological target: T2, full length G2019 human LRRK2 (Homo sapiens, UniProt Q5S007, R50H); experiment: Full length G2019 human LRRK2 inhibition mass spectrometry assay; type: biochemical; details: LRRKtide to phospho-LRRKtide conversion, RapidFire MS, 2 mM ATP
T2 construct: made in house; host or cells: HEK293 6E cells transduced with BacMam virus (virus generated in Sf9 cells)
T2 sequence (Q5S007 with tags, fused parts or gaps R50H): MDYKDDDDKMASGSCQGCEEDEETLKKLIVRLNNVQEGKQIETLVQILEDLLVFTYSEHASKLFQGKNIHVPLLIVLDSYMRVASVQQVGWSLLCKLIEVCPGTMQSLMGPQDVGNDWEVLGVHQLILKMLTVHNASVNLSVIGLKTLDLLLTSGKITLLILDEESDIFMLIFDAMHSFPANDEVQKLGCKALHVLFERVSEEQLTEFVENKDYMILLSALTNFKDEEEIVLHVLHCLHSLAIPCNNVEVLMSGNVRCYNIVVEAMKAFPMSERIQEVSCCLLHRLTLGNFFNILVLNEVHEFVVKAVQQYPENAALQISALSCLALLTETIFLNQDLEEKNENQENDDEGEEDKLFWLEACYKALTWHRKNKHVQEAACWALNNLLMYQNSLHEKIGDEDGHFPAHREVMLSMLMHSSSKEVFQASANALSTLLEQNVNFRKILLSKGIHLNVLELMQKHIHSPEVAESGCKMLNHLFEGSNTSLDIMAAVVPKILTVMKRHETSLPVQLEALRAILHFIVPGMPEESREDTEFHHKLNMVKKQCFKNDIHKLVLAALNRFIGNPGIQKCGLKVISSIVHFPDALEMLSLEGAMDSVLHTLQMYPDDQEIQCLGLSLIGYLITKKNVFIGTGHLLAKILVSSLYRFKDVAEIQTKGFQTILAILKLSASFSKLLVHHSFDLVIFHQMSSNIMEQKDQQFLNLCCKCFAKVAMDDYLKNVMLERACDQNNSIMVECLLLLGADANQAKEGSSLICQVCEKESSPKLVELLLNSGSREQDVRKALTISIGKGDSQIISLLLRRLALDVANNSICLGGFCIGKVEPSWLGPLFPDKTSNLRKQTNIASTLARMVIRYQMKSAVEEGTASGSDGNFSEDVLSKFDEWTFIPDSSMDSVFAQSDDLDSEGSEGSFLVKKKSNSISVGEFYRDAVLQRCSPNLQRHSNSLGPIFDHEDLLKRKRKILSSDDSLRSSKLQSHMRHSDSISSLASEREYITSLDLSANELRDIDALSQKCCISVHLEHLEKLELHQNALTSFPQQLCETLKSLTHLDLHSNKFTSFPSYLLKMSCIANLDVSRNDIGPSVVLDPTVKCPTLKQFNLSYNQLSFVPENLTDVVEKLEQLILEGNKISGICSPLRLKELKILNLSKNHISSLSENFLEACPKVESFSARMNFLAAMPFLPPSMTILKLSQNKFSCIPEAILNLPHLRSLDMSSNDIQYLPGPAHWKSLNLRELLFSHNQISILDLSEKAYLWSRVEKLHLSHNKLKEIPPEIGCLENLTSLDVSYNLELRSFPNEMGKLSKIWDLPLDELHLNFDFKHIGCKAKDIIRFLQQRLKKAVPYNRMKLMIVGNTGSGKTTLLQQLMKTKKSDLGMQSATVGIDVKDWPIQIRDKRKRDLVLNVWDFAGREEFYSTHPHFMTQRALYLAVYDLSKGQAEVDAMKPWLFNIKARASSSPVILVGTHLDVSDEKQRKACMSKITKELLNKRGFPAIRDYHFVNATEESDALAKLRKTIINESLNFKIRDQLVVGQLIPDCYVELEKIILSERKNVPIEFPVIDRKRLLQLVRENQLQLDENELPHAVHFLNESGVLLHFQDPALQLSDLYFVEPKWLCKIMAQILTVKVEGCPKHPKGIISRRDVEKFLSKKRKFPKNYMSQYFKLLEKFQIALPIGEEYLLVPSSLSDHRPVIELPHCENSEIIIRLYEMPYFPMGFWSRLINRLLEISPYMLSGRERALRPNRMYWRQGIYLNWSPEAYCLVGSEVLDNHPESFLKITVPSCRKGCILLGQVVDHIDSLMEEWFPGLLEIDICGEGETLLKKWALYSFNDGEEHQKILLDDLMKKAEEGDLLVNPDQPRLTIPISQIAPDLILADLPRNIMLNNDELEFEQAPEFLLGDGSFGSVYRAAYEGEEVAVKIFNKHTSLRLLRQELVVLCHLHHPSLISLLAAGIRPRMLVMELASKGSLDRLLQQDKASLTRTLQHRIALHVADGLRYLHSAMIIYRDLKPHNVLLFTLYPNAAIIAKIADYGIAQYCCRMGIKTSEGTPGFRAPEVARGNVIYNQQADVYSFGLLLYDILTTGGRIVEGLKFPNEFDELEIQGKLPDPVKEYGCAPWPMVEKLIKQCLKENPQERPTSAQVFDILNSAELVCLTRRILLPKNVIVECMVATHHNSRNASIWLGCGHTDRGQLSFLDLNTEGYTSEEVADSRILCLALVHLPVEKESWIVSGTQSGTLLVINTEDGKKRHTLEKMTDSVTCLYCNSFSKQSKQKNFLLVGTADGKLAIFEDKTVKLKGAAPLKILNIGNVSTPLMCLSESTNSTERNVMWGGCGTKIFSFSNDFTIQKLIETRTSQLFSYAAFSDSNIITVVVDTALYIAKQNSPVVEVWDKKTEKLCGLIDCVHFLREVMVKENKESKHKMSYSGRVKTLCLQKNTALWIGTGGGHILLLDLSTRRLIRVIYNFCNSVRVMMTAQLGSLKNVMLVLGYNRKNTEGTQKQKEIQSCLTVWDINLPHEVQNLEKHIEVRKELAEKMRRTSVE
In short: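 Purified full-length Flag-tagged G2019 LRRK2, ~25 nM, with 25 μM LRRKtide and 2 mM ATP in 50 mM Hepes pH 7.2, 10 mM MgCl2, 150 mM NaCl, 1 h at room temperature. Quenched with formic acid; phospho- and unphosphorylated LRRKtide measured by RapidFire MS. pIC50 from 4-parameter fit of % conversion, 11 points, top 100 μM.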

Structure (SMILES) | IC50 [1] | IC50 [2]
Cc1c2c(nn1C1CC3(COC3)C1)OCCC(C)Nc1nc(ncc1Cl)N2 (racemic) | > 10000 nM | –
Cc1c2c(nn1C1CCCOC1)OCCCNc1nc(ncc1Cl)N2 (single isomer, unassigned) [E10, 14-Chloro-4-methyl-5-(oxan-3-yl)-8-oxa-2,5,6,12,16,17-hexaaza tricyclo-[11.3.1.0^3,7]heptadeca-1(16),3,6,13(17),14-pentaene] | ≤ 100 nM | –
Cc1c2c(nn1C1CCOCC1)OCC(F)CNc1nc(ncc1Cl)N2 (single isomer, unassigned) [E17, 14-Chloro-10-fluoro-4-methyl-5-(oxan-4-yl)-8-oxa-2,5,6,12,16,17-hexaazatricyclo [11.3.1.0^3,7]heptadeca-1(16),3,6,13(17),14-pentaene] | ≤ 100 nM | –
Cc1c2c(nn1C1CCOCC1F)OCCC(C)Nc1nc(ncc1Cl)N2 (single isomer, unassigned) [E24, 14-chloro-5-(3-fluorooxan-4-yl)-4,11-dimethyl-8-oxa-2,5,6,12,16,17-hexaazatricyclo [11.3.1.0^3,7]heptadeca-1(17),3,6,13,15-pentaene] | ≤ 100 nM | –
CCOC(=O)C(C)(C)n1nc2c(c1C)Nc1ncc(Cl)c(n1)NC(C)CCO2 (single isomer, unassigned) [E38, Ethyl 2-{14-chloro-4,11-dimethyl-8-oxa-2,5,6,12,16,17-hexaazatricyclo [11.3.1.0^3,7]heptadeca-1(16),3,6,13(17),14-pentaen-5-yl}-2-methylpropanoate] | ≤ 100 nM | –
Cc1c2c(nn1C(C)(C)C(N)=O)OCCC(C)Nc1nc(ncc1Cl)N2 (single isomer, unassigned) [E42, 2-{14-chloro-4,11-dimethyl-8-oxa-2,5,6,12,16,17-hexaazatricyclo [11.3.1.0^3,7]heptadeca-1(16),3,6,13(17),14-pentaen-5-yl}-2-methylpropanamide] | ≤ 100 nM | –
Cc1c2c(nn1C(C)(C)C#N)OCCC(C)Nc1nc(ncc1Cl)N2 (single isomer, unassigned) [E44, 2-{14-chloro-4,11-dimethyl-8-oxa-2,5,6,12,16,17-hexaazatricyclo [11.3.1.0^3,7]heptadeca-1(16),3,6,13(17),14-pentaen-5-yl}-2-methylpropanenitrile] | ≤ 100 nM | –
Cc1c2c(nn1C1CCC(N3C[C@@H]4C[C@H]3CO4)CC1)OCCCNc1nc(ncc1Cl)N2 (single isomer, unassigned) [E50] | ≤ 100 nM | –
COCCN1CCC(n2nc3c(c2C)Nc2ncc(Cl)c(n2)NCCCO3)C(F)C1 (single isomer, unassigned) [E59, trans-14-chloro-5-[3-fluoro-1-(2-methoxyethyl)piperidin-4-yl]-4-methyl-8-oxa-2,5,6,12,16,17-hexaazatricyclo[11.3.1.0^3,7]heptadeca 1(16),3,6,13(17),14-pentaene] | ≤ 100 nM | –
Cc1c2c(nn1C1CCOC(C)C1)OCCC(C)Nc1nc(ncc1Cl)N2 (single isomer, unassigned) [E80, 14-chloro-4,11-dimethyl-5-(2-methyloxan-4-yl)-8-oxa-2,5,6,12, 16,17-hexaazatricyclo[11.3.1.0^3,7]heptadeca-1(16),3,6,13(17),14-pentaene] | ≤ 100 nM | –
Cc1c2c(nn1C1COCCC1F)OCCCNc1nc(ncc1Cl)N2 (single isomer, unassigned) [E86, 14-chloro-5-[4-fluorooxan-3-yl]-4-methyl-8-oxa-2,5,6,12,16,17-hexaazatricyclo [11.3.1.0^3,7]heptadeca-1(16),3,6,13(17),14-pentaene] | ≤ 100 nM | –
Cc1c2c(nn1C1CCC(O)CC1)OCCC(C)Nc1nc(ncc1Cl)N2 (single isomer, unassigned) [E94, 4-{14-chloro-4,11-dimethyl-8-oxa-2,5,6,12,16,17-hexaazatricyclo [11.3.1.0^3,7]heptadeca-1(16),3,6,13(17),14-pentaen-5-yl}cyclohexan-1-ol] | ≤ 100 nM | –
Cc1c2c(nn1C1CCOCC1)OCCC(C)(C)Nc1nc(ncc1Cl)N2 [E299, 14-Chloro-4,11,11-trimethyl-5-(oxan-4-yl)-8-oxa-2,5,6,12,16,17-hexaazatricyclo[11.3.1.0^3,7]heptadeca-1(16),3,6,13(17),14-pentaene] | – | ≤ 10 µM
Cc1c2c(nn1C(C)(C)C#N)OCC[C@@H](C(C)C)Nc1nc(ncc1Cl)N2 [E323, 2-[(11S)-14-Chloro-4-methyl-11-(propan-2-yl)-8-oxa-2,5,6,12, 16,17-hexaazatricyclo[11.3.1.0^3,7]heptadeca-1(16),3,6,13(17),14-pentaen-5-yl]-2-methylpropanenitrile] | – | ≤ 10 µM
CCN1CCCOc2nn(C3CCOCC3)c(C)c2Nc2ncc(Cl)c1n2 [E360, 14-Chloro-12-ethyl-4-methyl-5-(oxan-4-yl)-8-oxa-2,5,6,12,16,17-hexaazatricyclo[11.3.1.0^3,7]heptadeca-1(16),3,6,13(17),14-pentaene] | – | ≤ 10 µM
Cc1c2c(nn1C1CN(C3CCOCC3)C1)OC[C@@H](F)[C@@H](C)Nc1nc(ncc1Cl)N2 [E388, (10S, 11R)-14-Chloro-10-fluoro-4,11-dimethyl-5-[1-(oxan-4-yl)azetidin-3-yl]-8-oxa-2,5,6,12,16,17-hexaazatricyclo [11.3.1.0^3,7]heptadeca-1(16),3,6,13(17),14-pentaene] | – | ≤ 0.1 µM
Cc1c2c(nn1C1CN(C3CCCOC3)C1)OC[C@@H](F)[C@@H](C)Nc1nc(ncc1Cl)N2 (stereo partly drawn) [E390, (10S, 11R)-14-Chloro-10-fluoro-4,11-dimethyl-5-[1-(oxan-3-yl)azetidin-3-yl]-8-oxa-2,5,6,12,16,17-hexaazatricyclo [11.3.1.0^3,7]heptadeca-1(16)53,6,13(17),14-pentaene] | – | ≤ 0.1 µM
COC(C)c1c2c(nn1C1CCOCC1)OCC[C@@H](C)Nc1nc(ncc1Cl)N2 (stereo partly drawn) [E409, (11R)-14-Chloro-4-(1-methoxyethyl)-11-methyl-5-(oxan-4-yl)-8-oxa-2,5,6,12,16,17-hexaazatricyclo[11.3.1.0^3,7]heptadeca-1(17),3,6,13,15-pentaene] | – | ≤ 10 µM
Cc1c2c(nn1C1(C(F)(F)F)CCOCC1)OCCCNc1nc(ncc1Cl)N2 [E418, 14-Chloro-4-methyl-5-[4-(trifluoromethyl)oxan-4-yl]-8-oxa-2,5,6,12,16,17-hexaazatricyclo[11.3.1.0^3,7]heptadeca-1(16),3,6,13(17),14-pentaene] | – | ≤ 0.1 µM
Cc1c2c(nn1C1(C(F)(F)F)CCOCC1)OCC[C@@H](C)Nc1nc(ncc1Cl)N2 [E419, (11R)-14-Chloro-4,11-dimethyl-5-[4-(trifluoromethyl)oxan-4-yl]-8-oxa-2,5,6,12,16,17-hexaazatricyclo[11.3.1.0^3,7]heptadeca-1(16),3,6,13(17),14-pentaene] | – | ≤ 0.1 µM
FC(F)(F)c1c2c(nn1C1CCOCC1)OCCCNc1nc(ncc1Cl)N2 [E424, 14-Chloro-5-(oxan-4-yl)-4-(trifluoromethyl)-8-oxa-2,5,6,12,16,17-hexaazatricyclo[11.3.1.0^3,7]heptadeca-1(16),3,6,13(17),14-pentaene] | – | ≤ 0.1 µM
N#Cc1cnc2nc1NCCCOc1n[nH]c(Cl)c1N2 [E426, 4-Chloro-8-oxa-2,5,6,12,16,17-hexaazatricyclo[11.3.1.0^3,7]heptadeca-1(16),3,6,13(17),14-pentaene-14-carbonitrile] | – | ≤ 10 µM
